Test results from article PMC11945486, “TAS1R2/TAS1R3 Single-Nucleotide Polymorphisms Affect Sweet Taste Receptor Activation by Sweeteners: The SWEET Project” (Nutrients, 2025).
No end group written: not given here.

Target: T1, human TAS1R2-S212G/TAS1R3-WT (Homo sapiens, UniProt Q7RTX0+Q8TE23, S212G)
T1 construct: expressed in transfected cells; host or cells: HEK293T-Gα16gust44
T1 sequence (Q8TE23 20-839 S212G): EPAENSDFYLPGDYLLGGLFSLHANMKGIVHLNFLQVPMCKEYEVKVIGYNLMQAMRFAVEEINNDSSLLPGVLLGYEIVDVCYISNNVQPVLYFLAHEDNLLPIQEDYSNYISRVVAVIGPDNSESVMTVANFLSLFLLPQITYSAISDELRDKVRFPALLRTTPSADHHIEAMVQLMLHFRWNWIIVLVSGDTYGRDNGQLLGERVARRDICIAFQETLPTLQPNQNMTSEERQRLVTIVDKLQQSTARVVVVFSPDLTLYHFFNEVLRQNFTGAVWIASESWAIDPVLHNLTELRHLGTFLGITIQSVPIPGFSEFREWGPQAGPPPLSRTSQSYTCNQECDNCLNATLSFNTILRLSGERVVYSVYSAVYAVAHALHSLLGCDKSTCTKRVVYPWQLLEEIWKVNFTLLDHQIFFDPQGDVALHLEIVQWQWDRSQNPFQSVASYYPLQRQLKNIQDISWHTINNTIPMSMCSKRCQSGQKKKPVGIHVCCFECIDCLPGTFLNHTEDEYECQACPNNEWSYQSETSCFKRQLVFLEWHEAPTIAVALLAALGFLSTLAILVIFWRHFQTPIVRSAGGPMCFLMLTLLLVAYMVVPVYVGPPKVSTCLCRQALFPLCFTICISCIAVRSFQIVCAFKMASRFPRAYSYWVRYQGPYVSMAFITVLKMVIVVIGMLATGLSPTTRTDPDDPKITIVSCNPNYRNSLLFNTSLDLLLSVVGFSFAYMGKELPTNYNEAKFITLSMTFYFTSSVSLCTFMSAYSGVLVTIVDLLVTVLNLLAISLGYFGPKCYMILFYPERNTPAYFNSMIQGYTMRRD
T1 sequence (Q7RTX0 21-852): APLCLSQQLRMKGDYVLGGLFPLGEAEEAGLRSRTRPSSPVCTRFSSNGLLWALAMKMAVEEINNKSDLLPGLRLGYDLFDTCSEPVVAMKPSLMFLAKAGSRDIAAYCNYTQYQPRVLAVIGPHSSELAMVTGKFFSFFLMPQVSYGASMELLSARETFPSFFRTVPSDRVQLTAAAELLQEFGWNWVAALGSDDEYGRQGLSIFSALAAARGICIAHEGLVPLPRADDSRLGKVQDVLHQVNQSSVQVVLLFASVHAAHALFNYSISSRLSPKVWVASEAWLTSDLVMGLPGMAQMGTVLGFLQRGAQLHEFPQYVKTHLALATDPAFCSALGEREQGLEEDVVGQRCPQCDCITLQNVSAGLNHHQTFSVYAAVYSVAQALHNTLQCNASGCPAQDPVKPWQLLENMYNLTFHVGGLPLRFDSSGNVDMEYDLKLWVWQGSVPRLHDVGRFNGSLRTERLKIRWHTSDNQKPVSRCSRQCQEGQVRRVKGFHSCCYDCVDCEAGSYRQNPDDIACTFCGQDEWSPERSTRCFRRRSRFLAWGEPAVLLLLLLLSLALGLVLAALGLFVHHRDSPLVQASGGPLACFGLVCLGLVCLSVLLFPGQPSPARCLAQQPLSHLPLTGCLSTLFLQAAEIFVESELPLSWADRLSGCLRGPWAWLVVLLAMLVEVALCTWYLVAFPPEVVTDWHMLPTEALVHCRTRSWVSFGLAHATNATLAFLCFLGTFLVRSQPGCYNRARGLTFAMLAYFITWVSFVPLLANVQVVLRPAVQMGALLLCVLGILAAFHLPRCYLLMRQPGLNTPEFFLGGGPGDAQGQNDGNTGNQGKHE
Test: Calcium mobilisation assay, TAS1R2 variant S212G with TAS1R3-WT
Format: cell-based
Settings: for Max ΔF/F0: maximal signal amplitude
Text: The coding sequences for TAS1R2 and TAS1R3 were commercially synthesised, and the human codon was optimised for expression in human cells. The coding sequences of human TAS1R2 and TAS1R3 were subcloned and inserted into the mammalian expression vectors pcDNA6/myc-HisA and pcDNA4/myc-HisA (Invitrogen; Thermo Fisher Scientific; Illkirch, France) between the EcoRI and NotI restriction sites, generating the plasmids pcDNA6-TAS1R2 and pcDNA4-TAS1R3, respectively. To increase protein expression in mammalian cells, an upstream start codon was used, which was a sequence called MAX, corresponding to the QBI SP163 element also described in pcDNA4-HisMax (Invitrogen; Thermo Fisher Scientific; Illkirch, France). To measure the expression level of the receptor by immunohistochemistry, we used the FLAG sequence ([…]) in the C-terminal position, which encodes the FLAG tag epitope. SNP variants of TAS1R2 and TAS1R3 were constructed based on […], respectively, using site-directed mutagenesis (Genewiz; Leipzig, Germany).
The HEK293T cells were kindly provided by Jay P. Slack (Givaudan Flavors Corporation; Cincinnati, OH, USA). HEK293T cells stably transfected with Gα16gust44 [43, 67] were seeded in poly-D-lysine-coated clear-bottom black 96-well plates (0.35 × 10^5 cells/well) in high-glucose DMEM supplemented with 2 mM GlutaMAX, 10% dialysed foetal bovine serum with penicillin/streptomycin and G418 (400 μg/mL) at 37 °C and 6.3% CO2 in a humidified atmosphere as previously reported. […] As a negative control, HEK293T cells were mock-transfected with the empty expression vector. After a further 24 h of incubation, the HEK293T cells were washed with C1 buffer (130 mM NaCl, 5 mM KCl, 10 mM HEPES pH 7.4 and 2 mM CaCl2). The 96-well plates containing the cells were then stimulated with sweet-tasting compounds. […] Different concentration ranges were tested depending on the sweet compound injected. The Ca^2+ changes were expressed as fractional changes in fluorescent light intensity: ΔF/F = (F − F0)/F0, where F was the fluorescent light intensity at each point, and F0 was the value of emitted fluorescent light prior to stimulus application. To calculate dose–response relationships, the changes in fluorescence upon stimulus application were averaged, mock-subtracted and baseline-corrected. The dose–response data obtained were adjusted using a 4-parameter logistic equation. The half-maximal effective concentrations (EC50 values) and maximal signal amplitudes were calculated using SigmaPlot software (version 15.0) (Systat Software; San Jose, CA, USA).
For in vitro calcium mobilisation assay performed on hTAS1R2-SNPs, hTAS1R3-SNPs and mTAS1R3-I60T, 6 to 7 concentrations were tested for each sweet compound, plus buffer alone. All concentration–receptor combinations were measured in duplicate, and each experiment was repeated at least 4 times (8 wells/concentration). Results were expressed for each concentration as ΔF/F mean ± SEM and represented as dose–response curves.

CC1=CC(=O)NS(=O)(=O)O1 [Acesulfame K, acesulfame K]
EC50: 438 ± 25 µM | R1 = Variant EC50/WT EC50: 0.6 | Max ΔF/F0: 0.28 ± 0.01

O=S(=O)(O)NC1CCCCC1 [Cyclamate, cyclamate]
EC50: 1770 ± 44 µM

C[C@H](CC[C@@H](O[C@@H]1O[C@H](CO[C@@H]2O[C@H](CO)[C@@H](O)[C@H](O)[C@H]2O)[C@@H](O)[C@H](O)[C@H]1O[C@@H]1O[C@H](CO)[C@@H](O)[C@H](O)[C@H]1O)C(C)(C)O)[C@H]1CC[C@@]2(C)[C@@H]3CC=C4[C@@H](CC[C@H](O[C@@H]5O[C@H](CO[C@@H]6O[C@H](CO)[C@@H](O)[C@H](O)[C@H]6O)[C@@H](O)[C@H](O)[C@H]5O)C4(C)C)[C@]3(C)[C@H](O)C[C@]12C [Mogroside V, mogroside V]
EC50: 21.2 ± 2.1 µM | R1 = Variant EC50/WT EC50: 1.2 | Max ΔF/F0: 1.32 ± 0.05

COc1ccc(CCC(=O)c2c(O)cc(O[C@@H]3O[C@H](CO)[C@@H](O)[C@H](O)[C@H]3O[C@@H]3O[C@@H](C)[C@H](O)[C@@H](O)[C@H]3O)cc2O)cc1O [NHDC, neohesperidin dihydrochalcone]
EC50: 90.7 ± 8.1 µM | R1 = Variant EC50/WT EC50: 1.2 | Max ΔF/F0: 0.84 ± 0.03

COC(=O)[C@H](Cc1ccccc1)NC(=O)[C@H](CC(=O)O)NCCC(C)(C)C [Neotame]
EC50: 0.99 ± 0.05 µM | R1 = Variant EC50/WT EC50: 1.2 | Max ΔF/F0: 0.63 ± 0.01

C=C(C)[C@@H]1CC=C(/C=N/O)CC1 [Perillartine, perillartine]
EC50: 22.9 ± 0.6 µM | R1 = Variant EC50/WT EC50: 1.3 | Max ΔF/F0: 1.30 ± 0.01

C=C1C[C@@]23CC[C@H]4[C@@](C)(CCC[C@@]4(C)C(=O)O[C@@H]4O[C@H](CO)[C@@H](O)[C@H](O[C@@H]5O[C@H](CO)[C@@H](O)[C@H](O)[C@H]5O)[C@H]4O[C@@H]4O[C@H](CO)[C@@H](O)[C@H](O)[C@H]4O)[C@@H]2CC[C@]1(O[C@@H]1O[C@H](CO)[C@@H](O)[C@H](O[C@@H]2O[C@H](CO)[C@@H](O)[C@H](O)[C@H]2O)[C@H]1O[C@@H]1O[C@H](CO)[C@@H](O)[C@H](O)[C@H]1O)C3 [Rebaudioside M, rebaudioside M]
EC50: 23.2 ± 1.1 µM | R1 = Variant EC50/WT EC50: 1.4 | Max ΔF/F0: 1.14 ± 0.02

OC[C@H]1O[C@H](O[C@]2(CCl)O[C@H](CCl)[C@@H](O)[C@@H]2O)[C@H](O)[C@@H](O)[C@H]1Cl [Sucralose]
EC50: 96 ± 6 µM | R1 = Variant EC50/WT EC50: 1.1 | Max ΔF/F0: 0.64 ± 0.02

brazzein (QDKCKKVYENYPVSKCQLANQCNYDCKLDKHARSGECFYDEKRNLQCICDYCEY; ends and bridges not checked; cysteine pairing not given here; UniProt P56552 1-54, looked up) [sweet-tasting protein obtained by recombinant production using the yeast Pichia pastoris]
R1 = Variant EC50/WT EC50: 1.4 | Max ΔF/F0: 1.18 ± 0.02

thaumatin
R1 = Variant EC50/WT EC50: 0.8 | Max ΔF/F0: 0.6 ± 0.01

B1: thaumatin (protein)
chain: ATFEIVNRCSYTVWAAASKGDAALDAGGRQLNSGESWTINVEPGTKGGKIWARTDCYFDDSGSGICKTGDCGGLLRCKRFGRPPTTLAEFSLNQYGKDYIDISNIKGFNVPMDFSPTTRGCRGVRCAADIVGQCPAKLKAPGGGCNDACTVFQTSEYCCTTGKCGPTEYSRFFKRLCPDAFSYVLDKPTTVTCPGSSNYRVTFCPTA
modifications: Eight disulfides
notes: sweet-tasting plant protein, E957
EC50: 6.1 ± 0.2 µM
